Data from patent publication US11472808B2, “Substituted pyrrolo[1,2-c]pyrimidines as hepatitis B antiviral agents” (Enanta Pharmaceuticals, Inc., priority 2019, dated 2022).

system: HBV; assay: HepAD38 anti-HBV assay: reduction of viral product accumulation (virion DNA qPCR, HBsAg/HBeAg ELISA); type: cell-based; conditions: Hepatitis B virus, 120 h; HepAD38 cells; concentration reducing viral product accumulation by 50% relative to no drug controls; harvest five days after compound addition; read-out: HepAD38 EC50
Method: Methods: HepAD38 cells are maintained as previously reported (Ladner et al, Antimicrob. Agents Chemother. 1997, […], 1715). Briefly, cells are passaged upon attaining confluency in DMEM/F12 media in the presence of 10% FBS, Penn/Strep, 250 μg/mL G418, and 1 μg/ml tetracycline. Novel compounds are screened by first washing cells three times with PBS to remove tetracycline, and plating in 96 well plates at 35,000 cells/well. Compounds dissolved in DMSO are then diluted 1:200 into wells containing cells. Five days after compound addition, material is harvested for analysis. For an extended 8 day analysis, cells are plated and treated as described above, but media and compound are refreshed on d2 and d5 post initial treatment.
On harvest day, virion DNA is obtained by lysing with Sidestep Lysis and Stabilization Buffer and then quantified via quantitative real time PCR. Commercially available ELISA kits are used to quantitate the viral proteins HBsAg (Alpco) or HbeAg (US Biological) by following the manufacturer's recommended protocol after diluting samples to match the linear range of their respective assays. Irrespective of readout, compound concentrations that reduce viral product accumulation in the cell lysates or supernatants by 50% relative to no drug controls (EC50) are reported; EC50 ranges are as follows: A<0.1 μM; B 0.1-0.4 μM; C>0.4 μM.

`O=S(=O)(N[C@H]1CC2=C(c3ccn(C(F)F)n3)[C@H](c3ccc(F)cc3Cl)N=C(c3nccs3)N2C1)c1ccc(F)cc1` [Example 392] and `CS(=O)(=O)c1ccc(NS(=O)(=O)N[C@H]2CC3=C(c4ccn(C(F)F)n4)[C@H](c4ccc(F)cc4Cl)N=C(c4nccs4)N3C2)cc1` [Example 347] fall in the same range of EC50: 0.1 to 0.4 µM for the first, 0.1 to 0.4 µM for the second.

`CC(C)(CNS(=O)(=O)N[C@H]1CC2=C(c3ccn(C(F)F)n3)[C@H](c3ccc(F)cc3Cl)N=C(c3nccs3)N2C1)c1ccccn1` [Example 315] and `O=C(O)CC(NS(=O)(=O)N[C@H]1CC2=C(c3ccn(C(F)F)n3)[C@H](c3ccc(F)cc3Cl)N=C(c3nccs3)N2C1)c1ccccn1` (some centres unmarked) [Example 356] fall in the same range of EC50: 0.1 to 0.4 µM for the first, 0.1 to 0.4 µM for the second.

`COC(=O)CC1CCN(CCS(=O)(=O)N[C@H]2CC3=C(c4ccn(C(F)F)n4)[C@H](c4ccc(F)cc4Cl)N=C(c4nccs4)N3C2)CC1` [Example 61] and `COC(=O)CC1CCN(C(=O)CC2CCN(CCS(=O)(=O)N[C@H]3CC4=C(c5ccn(C(F)F)n5)[C@H](c5ccc(F)cc5Cl)N=C(c5nccs5)N4C3)CC2)CC1` [Example 62] cannot be ordered by EC50: under 0.1 µM for the first, under 0.1 µM for the second.

Compared with `O=C(N[C@H]1CC2=C(c3ccn(C(F)F)n3)[C@H](c3ccc(F)cc3Cl)N=C(c3nccs3)N2C1)N1CCS(=O)(=O)CC1` [Example 219], `O=C(N[C@H]1CC2=C(c3ccn(C(F)F)n3)[C@H](c3ccc(F)cc3Cl)N=C(c3nccs3)N2C1)N1CCOCC1` [Example 207] is lower in EC50: 0.1 to 0.4 µM for the first, under 0.1 µM for the second.

`O=C(Nc1ccc(F)c(F)c1)c1cccc(S(=O)(=O)N[C@H]2CC3=C(c4ccn(C(F)F)n4)[C@H](c4ccc(F)cc4Cl)N=C(c4nccs4)N3C2)c1` [Example 422] and `O=C(O)c1ccc(Cl)c(S(=O)(=O)N[C@H]2CC3=C(c4ccn(C(F)F)n4)[C@H](c4ccc(F)cc4Cl)N=C(c4nccs4)N3C2)c1` [Example 27] fall in the same range of EC50: 0.1 to 0.4 µM for the first, 0.1 to 0.4 µM for the second.

`O=C1N(CC#Cc2ccccc2)CCN1[C@H]1CC2=C(c3ccn(C(F)F)n3)[C@H](c3ccc(F)cc3Cl)N=C(c3nccs3)N2C1` [Example 48] and `O=C(O)c1ccc(C#CCN2CCN([C@H]3CC4=C(c5ccn(C(F)F)n5)[C@H](c5ccc(F)cc5Cl)N=C(c5nccs5)N4C3)C2=O)cc1` [Example 43] cannot be ordered by EC50: over 0.4 µM for the first, over 0.4 µM for the second.

`O[C@]1(CNCc2ccccc2)CC2=C(c3ccn(C(F)F)n3)[C@H](c3ccc(F)cc3Cl)N=C(c3nccs3)N2C1` [Example 118] and `ONC[C@@]1(O)CC2=C(c3ccn(C(F)F)n3)[C@H](c3ccc(F)cc3Cl)N=C(c3nccs3)N2C1` [Example 122] cannot be ordered by EC50: over 0.4 µM for the first, over 0.4 µM for the second.

`OCC[C@]1(F)CC2=C(c3ccn(C(F)F)n3)[C@H](c3ccc(F)cc3Cl)N=C(c3nccs3)N2C1` [Example 167] and `N#CC[C@]1(F)CC2=C(c3ccn(C(F)F)n3)[C@H](c3ccc(F)cc3Cl)N=C(c3nccs3)N2C1` [Example 193] cannot be ordered by EC50: over 0.4 µM for the first, over 0.4 µM for the second.

First: O=S(=O)(Nc1ccc(-c2ccccn2)cc1)N[C@H]1CC2=C(c3ccn(C(F)F)n3)[C@H](c3ccc(F)cc3Cl)N=C(c3nccs3)N2C1 [Example 346]
Second: Fc1ccc([C@@H]2N=C(c3nccs3)N3C[C@@H](Nc4cccc(-c5ccccn5)c4)CC3=C2c2ccn(C(F)F)n2)c(Cl)c1 [Example 331]
The EC50 of the first is lower: under 0.1 µM for the first, 0.1 to 0.4 µM for the second.

`CS(=O)(=O)C[C@]1(O)CC2=C(c3ccn(C(F)F)n3)[C@H](c3ccc(F)cc3Cl)N=C(c3nccs3)N2C1` [Example 145] and `COC[C@]1(O)CC2=C(c3ccn(C(F)F)n3)[C@H](c3ccc(F)cc3Cl)N=C(c3nccs3)N2C1` [Example 107] cannot be ordered by EC50: over 0.4 µM for the first, over 0.4 µM for the second.

`O=S(=O)(N[C@H]1CC2=C(c3ccn(C(F)F)n3)[C@H](c3ccc(F)cc3Cl)N=C(c3nccs3)N2C1)[C@H]1CC[C@](O)(c2cccnc2)CC1` [Example 105] and `O=S(=O)(N[C@H]1CC2=C(c3ccn(C(F)F)n3)[C@H](c3ccc(F)cc3Cl)N=C(c3nccs3)N2C1)[C@H]1CC[C@](O)(c2ccccn2)CC1` [Example 104] cannot be ordered by EC50: under 0.1 µM for the first, under 0.1 µM for the second.

First: O=S(=O)(N[C@H]1CC2=C(c3ccn(C(F)F)n3)[C@H](c3ccc(F)cc3Cl)N=C(c3nccs3)N2C1)C1(C[C@H](O)CO)CC1 [Example 425]
Second: O=C(O)CS(=O)(=O)N[C@H]1CC2=C(c3ccn(C(F)F)n3)[C@H](c3ccc(F)cc3Cl)N=C(c3nccs3)N2C1 [Example 18]
The EC50 of the first is lower: under 0.1 µM for the first, over 0.4 µM for the second.

`O=S(=O)(N[C@H]1CC2=C(c3ccn(C(F)F)n3)[C@H](c3ccc(F)cc3Cl)N=C(c3nccs3)N2C1)N1CCCC(F)(F)C1` [Example 278] and `CC1(C)CCCCN1S(=O)(=O)N[C@H]1CC2=C(c3ccn(C(F)F)n3)[C@H](c3ccc(F)cc3Cl)N=C(c3nccs3)N2C1` [Example 295] cannot be ordered by EC50: under 0.1 µM for the first, under 0.1 µM for the second.

`O=C(O)C1CCCN(CCS(=O)(=O)N[C@H]2CC3=C(c4ccn(C(F)F)n4)[C@H](c4ccc(F)cc4Cl)N=C(c4nccs4)N3C2)C1` (some centres unmarked) [Example 68] and `O=C(O)C1CCCN1CCS(=O)(=O)N[C@H]1CC2=C(c3ccn(C(F)F)n3)[C@H](c3ccc(F)cc3Cl)N=C(c3nccs3)N2C1` (some centres unmarked) [Example 65] cannot be ordered by EC50: over 0.4 µM for the first, over 0.4 µM for the second.

`C=CCN(C[C@]1(O)CC2=C(c3ccn(C(F)F)n3)[C@H](c3ccc(F)cc3Cl)N=C(c3nccs3)N2C1)S(C)(=O)=O` [Example 129] and `COCCOC[C@]1(O)CC2=C(c3ccn(C(F)F)n3)[C@H](c3ccc(F)cc3Cl)N=C(c3nccs3)N2C1` [Example 113] cannot be ordered by EC50: over 0.4 µM for the first, over 0.4 µM for the second.

`O=C(O)CC1CCN(C(=O)CC2CCN(CCS(=O)(=O)N[C@H]3CC4=C(c5ccn(C(F)F)n5)[C@H](c5ccc(F)cc5Cl)N=C(c5nccs5)N4C3)CC2)CC1` [Example 64] and `O=C(O)C1CCCN(C(=O)C2CCCN(CCS(=O)(=O)N[C@H]3CC4=C(c5ccn(C(F)F)n5)[C@H](c5ccc(F)cc5Cl)N=C(c5nccs5)N4C3)C2)C1` (some centres unmarked) [Example 69] cannot be ordered by EC50: over 0.4 µM for the first, over 0.4 µM for the second.

`CCOC(=O)/C=C/[C@]1(F)CC2=C(c3ccn(C(F)F)n3)[C@H](c3ccc(F)cc3Cl)N=C(c3nccs3)N2C1` [Example 172] and `COC(=O)NC[C@]1(F)CC2=C(c3ccn(C(F)F)n3)[C@H](c3ccc(F)cc3Cl)N=C(c3nccs3)N2C1` [Example 185] fall in the same range of EC50: 0.1 to 0.4 µM for the first, 0.1 to 0.4 µM for the second.

`CCCCS(=O)(=O)N[C@H]1CC2=C(c3ccn(C(F)F)n3)[C@H](c3ccc(F)cc3Cl)N=C(c3nccs3)N2C1` [Example 319] and `CS(=O)(=O)CCCS(=O)(=O)N[C@H]1CC2=C(c3ccn(C(F)F)n3)[C@H](c3ccc(F)cc3Cl)N=C(c3nccs3)N2C1` [Example 329] cannot be ordered by EC50: under 0.1 µM for the first, under 0.1 µM for the second.

First: CC(O)[C@]1(F)CC2=C(c3ccn(C(F)F)n3)[C@H](c3ccc(F)cc3Cl)N=C(c3nccs3)N2C1 (some centres unmarked) [Example 176]
Second: COC(=O)OC[C@@]1(F)CC2=C(c3ccn(C(F)F)n3)[C@H](c3ccc(F)cc3Cl)N=C(c3nccs3)N2C1 [Example 183]
The EC50 of the first is lower: under 0.1 µM for the first, 0.1 to 0.4 µM for the second. The first is the more potent here.

Compared with `O=C(O)CCCCS(=O)(=O)N[C@H]1CC2=C(c3ccn(C(F)F)n3)[C@H](c3ccc(F)cc3Cl)N=C(c3nccs3)N2C1` [Example 19], `O=C(O)CCS(=O)(=O)N[C@H]1CC2=C(c3ccn(C(F)F)n3)[C@H](c3ccc(F)cc3Cl)N=C(c3nccs3)N2C1` [Example 10] is higher in EC50: 0.1 to 0.4 µM for the first, over 0.4 µM for the second.

First: CC(C)(C)[Si](C)(C)OCC1(F)CC2=C(c3ccn(C(F)F)n3)[C@H](c3ccc(F)cc3Cl)N=C(c3nccs3)N2C1 (some centres unmarked) [Example 164]
Second: CCCNS(=O)(=O)N[C@H]1CC2=C(c3ccn(C(F)F)n3)[C@H](c3ccc(F)cc3Cl)N=C(c3nccs3)N2C1 [Example 77]
The EC50 of the first is higher: over 0.4 µM for the first, under 0.1 µM for the second.

First: CCOC(=O)CN([C@H]1CC2=C(c3ccn(C(F)F)n3)[C@H](c3ccc(F)cc3Cl)N=C(c3nccs3)N2C1)S(=O)(=O)c1cnn(CC(=O)OCC)c1 [Example 39]
Second: CC(=O)OCCCS(=O)(=O)N[C@H]1CC2=C(c3ccn(C(F)F)n3)[C@H](c3ccc(F)cc3Cl)N=C(c3nccs3)N2C1 [Example 310]
The EC50 of the first is higher: over 0.4 µM for the first, under 0.1 µM for the second. The second is the more potent here.

`O=C(N[C@H]1CC2=C(c3ccn(C(F)F)n3)[C@H](c3ccc(F)cc3Cl)N=C(c3nccs3)N2C1)C1CCCC1` [Example 238] and `O=C(O)C1CCN(C(=O)N[C@H]2CC3=C(c4ccn(C(F)F)n4)[C@H](c4ccc(F)cc4Cl)N=C(c4nccs4)N3C2)CC1` [Example 212] fall in the same range of EC50: 0.1 to 0.4 µM for the first, 0.1 to 0.4 µM for the second.

First: O=S(=O)(CCCC(O)c1ccccn1)N[C@H]1CC2=C(c3ccn(C(F)F)n3)[C@H](c3ccc(F)cc3Cl)N=C(c3nccs3)N2C1 (some centres unmarked) [Example 297]
Second: O=C(N[C@H]1CC2=C(c3ccn(C(F)F)n3)[C@H](c3ccc(F)cc3Cl)N=C(c3nccs3)N2C1)c1cccnc1 [Example 227]
The EC50 of the first is higher: 0.1 to 0.4 µM for the first, under 0.1 µM for the second. The second is the more potent here.

`O=C(N[C@H]1CC2=C(c3ccn(C(F)F)n3)[C@H](c3ccc(F)cc3Cl)N=C(c3nccs3)N2C1)c1cnccn1` [Example 233] and `O=S(=O)(N[C@H]1CC2=C(c3ccn(C(F)F)n3)[C@H](c3ccc(F)cc3Cl)N=C(c3nccs3)N2C1)N1C[C@H](O)[C@@H](O)C1` [Example 101] cannot be ordered by EC50: under 0.1 µM for the first, under 0.1 µM for the second.

`O=S(=O)(NC1CCC1)N[C@H]1CC2=C(c3ccn(C(F)F)n3)[C@H](c3ccc(F)cc3Cl)N=C(c3nccs3)N2C1` [Example 415] and `O=S(=O)(N[C@H]1CC2=C(c3ccn(C(F)F)n3)[C@H](c3ccc(F)cc3Cl)N=C(c3nccs3)N2C1)N1C[C@@H](O)[C@@H](O)C1` [Example 103] cannot be ordered by EC50: under 0.1 µM for the first, under 0.1 µM for the second.

same assay, conditions: Hepatitis B virus, HePAD38, 120 h, read-out: HepAD38 EC50 (μM)

Work on `O=C(N[C@H]1CC2=C(c3ccn(C(F)F)n3)[C@H](c3ccc(F)cc3Cl)N=C(c3nccs3)N2C1)Oc1ccccc1` [Example 200] yielded an EC50 of over 0.4 µM.
